“Also recorded” adds a separate entry of the source. Like-named read-outs stand apart in the source and are kept apart here. Peptide text beside a SMILES is read from it.
Columns and labels:
[1] = system: NKR strain; format: cell-based, Burkholderia sp. N16-1 strain
[2] = system: NKR strain; format: cell-based, Burkholderia sp. N16-1 strain; conditions: for cell count of the NKR strain in the soil vs no addition: pH-adjusted SB soil
[3] = system: Ralstonia solanacearum OE1-1 strain; format: cell-based; conditions: for cell count of the OE1-1 strain vs 0 ppm: Example 9; for control of R. solanacearum OE1-1 strain: Examples 9 and 10 summary, addition of 500 ppm or more
[4] = system: total cell count in the soil; format: cell-based
[5] = system: R. solanacearum OE1-1 strain; format: in vivo, tomato; conditions: 500 ppm D-serine-added contaminated soil
[6] = system: total cell count in the soil; assay: Total cell count in soil inoculated with the NKR strain (DNB agar medium); format: cell-based; conditions: Example 3; SB soil pH 7.0; sucrose solution with M9 medium (N, P and C source) added on day 13
[7] = Biolog GN plate, compounds in parentheses showed slight color development
[8] = Example 5, 5000 ppm added after 5 days at 20° C.
[9] = Example 7, SB soil, 5000 ppm substrate, D-serine metabolites

OC[C@H]1O[C@H](OC[C@H]2O[C@H](O[C@]3(CO)O[C@H](CO)[C@@H](O)[C@@H]3O)[C@H](O)[C@@H](O)[C@@H]2O)[C@H](O)[C@@H](O)[C@H]1O [D-raffinose]
assimilation by the NKR strain (color development of an oxidation-reduction indicator) [1, 7]: no color development

NC(CO)C(=O)O (racemic) [DL-serine]
cell count of the NKR strain in the soil vs no addition [2, 8]: the effect of cell count control can be observed though the degree of reduction is small

NC(=O)[C@@H](O)[C@@H](O)[C@H](O)[C@@H](O)C=O [glucuronamide]
assimilation by the NKR strain (color development of an oxidation-reduction indicator) [1, 7]: slight color development

NCCc1ccccc1 [phenylethylamine]
assimilation by the NKR strain (color development of an oxidation-reduction indicator) [1, 7]: no color development

Cc1cn([C@H]2C[C@H](O)[C@@H](CO)O2)c(=O)[nH]c1=O [thymidine]
assimilation by the NKR strain (color development of an oxidation-reduction indicator) [1, 7]: no color development

N[C@@H](CO)C(=O)O [L-serine]
assimilation by the NKR strain (color development of an oxidation-reduction indicator) [1, 7]: slight color development | cell count of the NKR strain in the soil vs no addition [2, 8]: remained almost constant; also recorded: almost no effect

NCCC[C@H](N)C(=O)O [L-omithine]
assimilation by the NKR strain (color development of an oxidation-reduction indicator) [1, 7]: slight color development

NCCO [ethanolamine]
cell count of the OE1-1 strain vs 0 ppm ([3]; ethanolamine 500 ppm sequentially added or 1000 ppm or greater): decrease in the cell counts | cell count of the OE1-1 strain vs 0 ppm ([3]; one-time addition of 500 ppm ethanolamine): did not exhibit sufficient effects | control of R. solanacearum OE1-1 strain [3]: works to control | assimilation by the NKR strain (color development of an oxidation-reduction indicator) [1, 7]: slight color development | total cell count in the soil [4]: remained constant | cell count of the NKR strain vs control section [2, 9]: markedly declined; also recorded: exhibited control effects

C[C@H](N)C(N)=O [alanine amide]
assimilation by the NKR strain (color development of an oxidation-reduction indicator) [1, 7]: slight color development

gentiobiose
assimilation by the NKR strain (color development of an oxidation-reduction indicator) [1]: no color development

NCCCCN [putrescine]
assimilation by the NKR strain (color development of an oxidation-reduction indicator) [1, 7]: slight color development

OC[C@@H](O)[C@H](O)[C@@H](O)CO [xylitol]
assimilation by the NKR strain (color development of an oxidation-reduction indicator) [1, 7]: no color development

NC(CO)C(=O)O [D-serine, 2-amino-3-hydroxypropionic acid]
cell count of the OE1-1 strain vs control ([3]; Example 8, field soil, 5000 ppm): declined markedly | cell count of the OE1-1 strain vs 0 ppm ([3]; field soil, D-serine 500, 1000, 2000 or 5000 ppm): a reduction in the cell count | control of R. solanacearum OE1-1 strain [3]: works to control | assimilation by the NKR strain (color development of an oxidation-reduction indicator) [1, 7]: does not assimilate; also recorded: no color development | total cell count in the soil [4]: almost no changes were observed | cell count of the NKR strain in the soil vs no addition ([2]; Example 4, 0.5% D-serine added after 2 days culture at 30° C.): markedly reduced; also recorded: markedly declined; also recorded: very effective | cell count of the NKR strain in the soil vs no addition [2, 8]: markedly declined; also recorded: very effective | cell count of the NKR strain vs control section ([2]; Example 6, 5000 ppm, Kuroboku (black) soil A (field soil)): no effects were observed | cell count of the NKR strain vs control section ([2]; Example 6, 5000 ppm, Kuroboku (black) soil B, sandy soils A, B, C, D (all soils excluding Kuroboku soil A)): markedly declined | germination of tomato seeds ([5]; day 4 after sowing): germination of the tomato seeds was observed | growth of young tomato seedlings ([5]; no-addition seedlings all died except one by day 10): grew normally

CCC(=O)C(=O)O [α-ketobutyric acid]
assimilation by the NKR strain (color development of an oxidation-reduction indicator) [1, 7]: slight color development

O=C(CO)[C@H](O)[C@H](O)[C@H](O)CO [D-piscose]
assimilation by the NKR strain (color development of an oxidation-reduction indicator) [1, 7]: slight color development

O=C(O)CCCO [γ-hydroxybutyric acid]
assimilation by the NKR strain (color development of an oxidation-reduction indicator) [1, 7]: no color development

OC[C@H]1O[C@H](O[C@H]2[C@H](O)[C@@H](O)[C@H](O)O[C@@H]2CO)[C@H](O)[C@@H](O)[C@@H]1O [maltose]
assimilation by the NKR strain (color development of an oxidation-reduction indicator) [1, 7]: no color development

C[C@@H](O)[C@H](N)C(=O)O [L-threonine]
assimilation by the NKR strain (color development of an oxidation-reduction indicator) [1, 7]: slight color development

COC1OC(CO)C(O)C(O)C1O [β-methyl-D-glucose]
assimilation by the NKR strain (color development of an oxidation-reduction indicator) [1, 7]: no color development

O=C(O)CC(=O)O [malonic acid]
assimilation by the NKR strain (color development of an oxidation-reduction indicator) [1, 7]: slight color development

O=C(CO)[C@@H](O[C@H]1O[C@H](CO)[C@@H](O)[C@H](O)[C@H]1O)[C@H](O)[C@H](O)CO [turanose]
assimilation by the NKR strain (color development of an oxidation-reduction indicator) [1, 7]: no color development

O=C[C@H](O)[C@@H](O)[C@H](O[C@@H]1O[C@H](CO)[C@@H](O)[C@H](O)[C@H]1O)[C@H](O)CO [cellobiose]
assimilation by the NKR strain (color development of an oxidation-reduction indicator) [1, 7]: slight color development

glycogen
assimilation by the NKR strain (color development of an oxidation-reduction indicator) [1, 7]: no color development

O=C(O)/C=C/c1c[nH]cn1 [urocanic acid]
assimilation by the NKR strain (color development of an oxidation-reduction indicator) [1, 7]: slight color development

O=c1ccn([C@@H]2O[C@H](CO)[C@@H](O)[C@H]2O)c(=O)[nH]1 [uridine]
assimilation by the NKR strain (color development of an oxidation-reduction indicator) [1, 7]: slight color development

O=C[C@H](O)[C@@H](O)[C@H](O)[C@H](O)COP(=O)(O)O [glucose-6-phosphate]
assimilation by the NKR strain (color development of an oxidation-reduction indicator) [1, 7]: slight color development

CCC(O)C(=O)O (stereo not drawn) [α-hydroxybutyric acid]
assimilation by the NKR strain (color development of an oxidation-reduction indicator) [1, 7]: slight color development

OC[C@H]1O[C@@](CO)(O[C@H]2O[C@H](CO)[C@@H](O)[C@H](O)[C@H]2O)[C@@H](O)[C@@H]1O [sucrose]
assimilation by the NKR strain (color development of an oxidation-reduction indicator) [1, 7]: does not assimilate; also recorded: no color development | cell count of the NKR strain in the soil ([2]; Example 3, SB soil pH 7.0, sucrose solution with M9 medium added on day 13 after inoculation): transiently increased but then starts to decline; also recorded: after a transient increase, decreased slightly | total cell counts in the soil [6]: increases in the total cell counts were observed

NCC(=O)N[C@@H](CC(=O)O)C(=O)O [glycyl-L-aspartic acid] (H-Gly-Asp-OH)
assimilation by the NKR strain (color development of an oxidation-reduction indicator) [1, 7]: no color development

CC(=O)C(=O)O [pyruvic acid]
cell count of the NKR strain vs control section [2, 9]: markedly declined; also recorded: exhibited control effects

N[C@H](CS)C(=O)O [D-cysteine]
cell count of the NKR strain vs control section [2, 9]: markedly declined; also recorded: exhibited control effects

C=C(CC(=O)O)C(=O)O [itaconic acid]
assimilation by the NKR strain (color development of an oxidation-reduction indicator) [1, 7]: no color development

COc1ccc2nccc(C(=O)O)c2c1 [quininic acid]
assimilation by the NKR strain (color development of an oxidation-reduction indicator) [1, 7]: slight color development

N[C@@H](CC(=O)O)C(=O)O [L-aspartic acid]
assimilation by the NKR strain (color development of an oxidation-reduction indicator) [1, 7]: slight color development

CC(O)C(C)O (stereo not shown) [2,3-butanediol]
assimilation by the NKR strain (color development of an oxidation-reduction indicator) [1, 7]: no color development

O=C(O)[C@@H](O)[C@@H](O)[C@H](O)[C@@H](O)C(=O)O [D-saccharic acid]
assimilation by the NKR strain (color development of an oxidation-reduction indicator) [1, 7]: slight color development

OC[C@H]1O[C@@H](O[C@H]2[C@H](O)[C@@H](O)[C@@H](O)O[C@@H]2CO)[C@H](O)[C@@H](O)[C@H]1O [α-D-lactose]
assimilation by the NKR strain (color development of an oxidation-reduction indicator) [1, 7]: slight color development

α-cyclodexrin
assimilation by the NKR strain (color development of an oxidation-reduction indicator) [1, 7]: no color development

O=P(O)(O)O[C@H]1O[C@H](CO)[C@@H](O)[C@H](O)[C@H]1O [glucose-1-phosphate]
assimilation by the NKR strain (color development of an oxidation-reduction indicator) [1, 7]: no color development

O=C(O)CCC(=O)C(=O)O [α-ketoglutaric acid]
assimilation by the NKR strain (color development of an oxidation-reduction indicator) [1, 7]: slight color development

CCC(=O)O [propionic acid]
assimilation by the NKR strain (color development of an oxidation-reduction indicator) [1, 7]: no color development

OC[C@@H](O)[C@@H](O)CO [erythritol]
assimilation by the NKR strain (color development of an oxidation-reduction indicator) [1, 7]: no color development

OC[C@H]1O[C@H](O[C@H]2O[C@H](CO)[C@@H](O)[C@H](O)[C@H]2O)[C@H](O)[C@@H](O)[C@@H]1O [D-trehalose]
assimilation by the NKR strain (color development of an oxidation-reduction indicator) [1, 7]: slight color development

CC(=O)O [acetic acid]
assimilation by the NKR strain (color development of an oxidation-reduction indicator) [1, 7]: no color development

O=C(O)CCCCCCCCC(=O)O [sebacic acid]
assimilation by the NKR strain (color development of an oxidation-reduction indicator) [1, 7]: slight color development

C[C@@H](N)C(=O)O [D-α-alanine]
assimilation by the NKR strain (color development of an oxidation-reduction indicator) [1, 7]: no color development | cell count of the NKR strain vs control section [2, 9]: markedly declined; also recorded: exhibited control effects

O=P(O)(O)OCC(O)CO [D, L-α-glycerol phosphate]
assimilation by the NKR strain (color development of an oxidation-reduction indicator) [1, 7]: no color development

dextrin
assimilation by the NKR strain (color development of an oxidation-reduction indicator) [1, 7]: no color development
